Measurements taken from patent US11999759B2, “Boronic acid derivatives and therapeutic uses thereof” (Qpex Biopharma, Inc., priority 2016, dated 2024).

Columns and labels:
[1] = target: IMP-1 (Serratia marcescens, UniProt P52699); assay: Inhibition of imipenem cleavage by purified IMP-1; format: biochemical; details: imipenem reporter substrate; 37° C.; read-out: Ki (IMP-1, IMI)
Experimental: Ki values of inhibition of purified class B enzymes NDM-1 and IMP-1 were determined spectrophotometrically using imipenem as reporter substrate. Purified enzymes were mixed with various concentrations of inhibitors in reaction buffer and incubated for 10 min at room temperature. Imipenem was added and substrate cleavage profiles were recorded at 294 nm every 30 seconds for 30 minutes at 37° C. These experiments further confirmed that the described compounds have the ability to inhibit carbapenemase activity of metallo-beta-lactamases.

[2] = target: CTX-M-14 (Escherichia coli, UniProt Q9L5C7); assay: Inhibition of nitrocefin cleavage by purified CTX-M-14; format: biochemical; details: nitrocefin reporter substrate; 10 min preincubation at room temperature; read-out: Ki (CTX-M-14, NCF)
Experimental: (§1) Ki values of inhibition of purified class A, C and D enzymes were determined spectrophotometrically using nitrocefin as reporter substrate. Purified enzymes were mixed with various concentrations of inhibitors in reaction buffer and incubated for 10 min at room temperature. Nitrocefin was added and substrate cleavage profiles were recorded at 490 nm every 10 sec for 10 min.

[3] = target: NDM-1 (Klebsiella pneumoniae, UniProt C7C422); assay: Inhibition of imipenem cleavage by purified NDM-1; format: biochemical; details: imipenem reporter substrate; 37° C.; read-out: Ki (NDM-1, IMI)
Experimental: Purified enzymes were mixed with various concentrations of inhibitors in reaction buffer and incubated for 10 min at room temperature. Imipenem was added and substrate cleavage profiles were recorded at 294 nm every 30 seconds for 30 minutes at 37° C.

[4] = target: Pa-AmpC (Pseudomonas aeruginosa, UniProt P24735); assay: biochemical; details: nitrocefin reporter substrate; 10 min preincubation at room temperature; read-out: Ki (Pa-AmpC, NCF)
Experimental: as §1

[5] = target: P99 (Enterobacter cloacae, UniProt P05364); assay: biochemical; details: nitrocefin reporter substrate; 10 min preincubation at room temperature; read-out: Ki (P99, NCF)
Experimental: as §1

[6] = test system: PAM1154/KPC-2 (lacked MexAB-OprM); assay: Biapenem potentiation (MPC64) in PAM1154/KPC-2; format: cell-based, Pseudomonas aeruginosa; parameters: PAM1154/KPC-2 Biapenem MPC64: unit not given here; details: BLI potency to decrease biapenem MIC 64-fold, from 32 to 0.5 μg/ml; efflux deficient strain
Experimental: (§2) Efflux of BLIs from Pseudomonas aeruginosa by the MexAB-OprM efflux pump was also evaluated. The plasmid expressing the gene encoding KPC-2 was introduced into two strains of P. aeruginosa, PAM1032 and PAM1154 that overexpressed or lacked MexAB-OprM, respectively. Due to expression of KPC-2 both strains became resistant to biapenem. […] Potency of BLIs to potentiate biapenem in these strains was determined. […] The ratio of MPC64 values for each BLI in PAM1032/KPC-2 (efflux proficient) and PAM1154/KPC-2 (efflux deficient) was determined to generate the Efflux Index (EI) as shown in Table 8.

[7] = target: VIM-1 (Pseudomonas aeruginosa, UniProt A0A0F7KYQ8); assay: Inhibition of nitrocefin cleavage by purified VIM-1; format: biochemical; details: nitrocefin reporter substrate; 10 min preincubation at room temperature; read-out: Ki (VIM-1, NCF)
[8] = target: KPC-2 (Klebsiella pneumoniae, UniProt Q9F663); assay: Inhibition of nitrocefin cleavage by purified KPC-2; format: biochemical; details: nitrocefin reporter substrate; 10 min preincubation at room temperature; read-out: Ki (KPC-2, NCF)
Experimental: as §1, with “min. These experiments confirmed that the described compounds are inhibitors with a broad-spectrum of activity towards various β-lactamases.” for “min.”

[9] = test system: PAM1032/KPC-2 (overexpressed MexAB-OprM); assay: Biapenem potentiation (MPC64) in PAM1032/KPC-2; format: cell-based, Pseudomonas aeruginosa; parameters: PAM1032/KPC-2 Biapenem MPC64: unit not given here; details: BLI potency to decrease biapenem MIC 64-fold, from 32 to 0.5 μg/ml; efflux proficient strain
Experimental: as §2

[10] = target: OXA-48 (Klebsiella pneumoniae, UniProt Q6XEC0); assay: Inhibition of nitrocefin cleavage by purified OXA-48; format: biochemical; details: nitrocefin reporter substrate; 10 min preincubation at room temperature; read-out: Ki (OXA-48, NCF)
Experimental: as §1, with “min. These experiments confirmed that the described compounds are inhibitors with a broad-spectrum of activity towards various β-lactamases.” for “min.”

[11] = target: OXA-23 (Acinetobacter baumannii, UniProt Q9L4P2); assay: Inhibition of nitrocefin cleavage by purified OXA-23; format: biochemical; details: nitrocefin reporter substrate; 10 min preincubation at room temperature; read-out: Ki (OXA-23, NCF)
Experimental: as §1, with “min. These experiments confirmed that the described compounds are inhibitors with a broad-spectrum of activity towards various β-lactamases.” for “min.”

Pa-AmpC, sequence (P24735 27-397): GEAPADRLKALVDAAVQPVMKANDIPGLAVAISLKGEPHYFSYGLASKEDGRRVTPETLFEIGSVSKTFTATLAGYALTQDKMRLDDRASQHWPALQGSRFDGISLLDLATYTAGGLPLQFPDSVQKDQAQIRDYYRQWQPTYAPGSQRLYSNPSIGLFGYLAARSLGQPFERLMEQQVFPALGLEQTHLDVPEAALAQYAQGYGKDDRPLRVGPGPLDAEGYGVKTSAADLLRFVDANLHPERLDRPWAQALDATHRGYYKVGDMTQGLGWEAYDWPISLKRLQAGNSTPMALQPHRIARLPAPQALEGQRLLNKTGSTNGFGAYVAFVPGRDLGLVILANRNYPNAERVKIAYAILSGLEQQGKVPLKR
CTX-M-14, sequence (Q9L5C7 29-291, species assumed): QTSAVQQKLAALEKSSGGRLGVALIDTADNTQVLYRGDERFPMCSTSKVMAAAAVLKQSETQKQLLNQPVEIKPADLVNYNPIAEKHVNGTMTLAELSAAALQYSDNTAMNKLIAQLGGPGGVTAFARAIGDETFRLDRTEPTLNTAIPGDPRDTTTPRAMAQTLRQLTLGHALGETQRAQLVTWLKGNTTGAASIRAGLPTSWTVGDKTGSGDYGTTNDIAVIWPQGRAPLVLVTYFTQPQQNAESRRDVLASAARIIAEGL
NDM-1, sequence (C7C422 29-270, looked up, species assumed): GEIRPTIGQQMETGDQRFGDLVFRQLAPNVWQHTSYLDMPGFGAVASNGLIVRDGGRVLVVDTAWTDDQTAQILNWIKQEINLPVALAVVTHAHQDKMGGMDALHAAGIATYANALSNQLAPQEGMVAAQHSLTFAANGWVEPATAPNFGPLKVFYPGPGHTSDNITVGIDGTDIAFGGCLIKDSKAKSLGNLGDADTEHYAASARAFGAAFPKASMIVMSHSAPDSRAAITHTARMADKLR
IMP-1, sequence (P52699 19-246, looked up, species assumed): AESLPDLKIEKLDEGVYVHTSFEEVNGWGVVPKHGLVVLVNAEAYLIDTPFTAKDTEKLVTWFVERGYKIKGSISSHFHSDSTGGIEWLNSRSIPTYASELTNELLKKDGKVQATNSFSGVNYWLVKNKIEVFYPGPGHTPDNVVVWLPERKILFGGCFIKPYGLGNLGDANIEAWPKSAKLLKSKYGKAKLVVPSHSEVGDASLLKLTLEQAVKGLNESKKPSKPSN
OXA-23, sequence (Q9L4P2 18-273): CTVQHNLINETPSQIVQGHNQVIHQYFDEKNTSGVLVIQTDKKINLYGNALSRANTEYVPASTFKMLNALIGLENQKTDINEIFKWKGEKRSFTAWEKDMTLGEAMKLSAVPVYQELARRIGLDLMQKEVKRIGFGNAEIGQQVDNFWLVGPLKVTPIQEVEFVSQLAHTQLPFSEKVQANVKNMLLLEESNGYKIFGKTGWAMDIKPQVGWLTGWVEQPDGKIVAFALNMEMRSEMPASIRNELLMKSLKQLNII
P99, sequence (P05364 21-381): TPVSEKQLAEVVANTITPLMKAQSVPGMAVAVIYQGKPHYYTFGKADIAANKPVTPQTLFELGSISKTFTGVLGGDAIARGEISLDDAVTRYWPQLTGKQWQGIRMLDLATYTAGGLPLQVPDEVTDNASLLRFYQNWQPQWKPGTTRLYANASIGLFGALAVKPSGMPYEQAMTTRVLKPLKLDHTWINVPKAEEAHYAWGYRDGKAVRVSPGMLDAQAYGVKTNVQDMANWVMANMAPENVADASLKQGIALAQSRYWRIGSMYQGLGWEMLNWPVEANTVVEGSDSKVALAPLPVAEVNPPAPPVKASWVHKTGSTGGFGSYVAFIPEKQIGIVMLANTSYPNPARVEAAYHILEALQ
OXA-48, sequence (Q6XEC0 23-265, looked up): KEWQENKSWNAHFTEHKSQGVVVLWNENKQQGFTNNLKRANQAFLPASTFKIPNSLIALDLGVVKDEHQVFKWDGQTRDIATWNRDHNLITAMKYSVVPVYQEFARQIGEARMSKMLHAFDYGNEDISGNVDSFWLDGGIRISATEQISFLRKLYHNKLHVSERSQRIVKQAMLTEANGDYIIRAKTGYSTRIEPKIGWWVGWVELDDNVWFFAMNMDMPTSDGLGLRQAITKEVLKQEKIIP
KPC-2, sequence (Q9F663 25-293 limits assumed): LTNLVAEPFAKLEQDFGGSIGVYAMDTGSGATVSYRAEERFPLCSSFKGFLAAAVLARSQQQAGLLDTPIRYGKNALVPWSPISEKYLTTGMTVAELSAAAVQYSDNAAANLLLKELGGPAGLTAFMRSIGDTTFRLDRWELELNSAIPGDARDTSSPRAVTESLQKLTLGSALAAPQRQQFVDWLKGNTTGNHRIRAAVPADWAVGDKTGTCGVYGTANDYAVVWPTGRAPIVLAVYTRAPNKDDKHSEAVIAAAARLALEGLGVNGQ

## COc1ccc2c(c1C(=O)O)OB(O)[C@H]1C[C@@H]21 [Compound 2, (1aS,7bR)-2-hydroxy-5-methoxy-1a,7b-dihydro-1H-cyclopropa[c][1,2]benzoxaborinine-4-carboxylic acid]
[1]
  Ki: > 1000 nM
[2]
  Ki: < 100 nM
[3]
  Ki: 100 to 1000 nM
[4]
  Ki: < 100 nM
[5]
  Ki: < 100 nM
[6]
  PAM1154/KPC-2 Biapenem MPC64: 1.25
[7]
  Ki: 100 to 1000 nM
[8]
  Ki: < 100 nM
[9]
  PAM1032/KPC-2 Biapenem MPC64: 2.5
[10]
  Ki: < 100 nM
[11]
  Ki: < 100 nM

## COc1ccc2c(c1C(=O)O)OB(O)[C@@H]1C[C@H]21 [Compound 3, (1aR,7bS)-2-hydroxy-5-methoxy-1a,7b-dihydro-1H-cyclopropa[c][1,2]benzoxaborinine-4-carboxylic acid]
[1]
  Ki: < 100 nM
[2]
  Ki: < 100 nM
[3]
  Ki: < 100 nM
[4]
  Ki: < 100 nM
[5]
  Ki: < 100 nM
[6]
  PAM1154/KPC-2 Biapenem MPC64: 2.5
[7]
  Ki: < 100 nM
[8]
  Ki: < 100 nM
[9]
  PAM1032/KPC-2 Biapenem MPC64: 5
[10]
  Ki: < 100 nM
[11]
  Ki: < 100 nM

## COc1ccc2c(c1C(=O)O)OB(O)C1C2C1(F)F (stereo not shown) [Compound 5, 1,1-Difluoro-2-hydroxy-5-methoxy-1a,7b-dihydrocyclopropa[c][1,2]benzoxaborinine-4-carboxylic acid]
[1]
  Ki: > 1000 nM
[2]
  Ki: < 100 nM
[3]
  Ki: 100 to 1000 nM
[4]
  Ki: > 1000 nM
[5]
  Ki: 100 to 1000 nM
[6]
  PAM1154/KPC-2 Biapenem MPC64: 10
[7]
  Ki: > 1000 nM
[8]
  Ki: < 100 nM
[9]
  PAM1032/KPC-2 Biapenem MPC64: 20
[10]
  Ki: < 100 nM
[11]
  Ki: < 100 nM

## O=C(O)c1cccc2c1OB(O)CC21CC1 [Compound 14, 4,4-dihydroxyspiro[5-oxa-4-boranuidabicyclo[4.4.0]deca-1(6),7,9-triene-2,1′-cyclopropane]-7-carboxylic acid]
[1]
  Ki: > 1000 nM
[2]
  Ki: < 100 nM
[3]
  Ki: < 100 nM
[4]
  Ki: < 100 nM
[5]
  Ki: < 100 nM
[6]
  PAM1154/KPC-2 Biapenem MPC64: 1.25
[7]
  Ki: > 1000 nM
[8]
  Ki: < 100 nM
[9]
  PAM1032/KPC-2 Biapenem MPC64: 40
[10]
  Ki: < 100 nM
[11]
  Ki: < 100 nM

## O=C(O)c1c(F)ccc2c1OB(O)CC21CC1 [Compound 15, 8-fluoro-4,4-dihydroxy-spiro[5-oxa-4-boranuidabicyclo[4.4.0]deca-1(6),7,9-triene-2,1′-cyclopropane]-7-carboxylic acid]
[1]
  Ki: > 1000 nM
[2]
  Ki: < 100 nM
[3]
  Ki: 100 to 1000 nM
[4]
  Ki: < 100 nM
[5]
  Ki: < 100 nM
[6]
  PAM1154/KPC-2 Biapenem MPC64: 1.25
[7]
  Ki: > 1000 nM
[8]
  Ki: < 100 nM
[9]
  PAM1032/KPC-2 Biapenem MPC64: 5
[10]
  Ki: < 100 nM
[11]
  Ki: < 100 nM

## O=C(O)c1cccc2c1OB(O)[C@@H]1C[C@H]21 [Compound 16, (1aR,7bS)-2,2-dihydroxy-1a,7b-dihydro-1H-cyclopropa[c][1,2]benzoxaborinine-4-carboxylic acid]
[1]
  Ki: < 100 nM
[2]
  Ki: < 100 nM
[3]
  Ki: < 100 nM
[4]
  Ki: < 100 nM
[5]
  Ki: < 100 nM
[6]
  PAM1154/KPC-2 Biapenem MPC64: 0.3
[7]
  Ki: < 100 nM
[8]
  Ki: < 100 nM
[9]
  PAM1032/KPC-2 Biapenem MPC64: 1.25
[10]
  Ki: < 100 nM
[11]
  Ki: < 100 nM

## O=C(O)c1c(OCCF)ccc2c1OB(O)C1CC21 (stereo not shown) [Compound 17, 5-(2-fluoroethoxy)-2,2-dihydroxy-1a,7b-dihydro-1H-cyclopropa[c][1,2]benzoxaborinine-4-carboxylic acid]
[1]
  Ki: < 100 nM
[2]
  Ki: < 100 nM
[3]
  Ki: < 100 nM
[4]
  Ki: < 100 nM
[5]
  Ki: < 100 nM
[6]
  PAM1154/KPC-2 Biapenem MPC64: 5
[7]
  Ki: < 100 nM
[8]
  Ki: < 100 nM
[9]
  PAM1032/KPC-2 Biapenem MPC64: 20
[10]
  Ki: < 100 nM
[11]
  Ki: < 100 nM

## O=C(O)c1cccc2c1OB(O)[C@H]1C[C@@H]21 [Compound 18, (1aS,7bR)-2,2-dihydroxy-1a,7b-dihydro-1H-cyclopropa[c][1,2]benzoxaborinine-4-carboxylic acid]
[1]
  Ki: > 1000 nM
[2]
  Ki: < 100 nM
[3]
  Ki: < 100 nM
[4]
  Ki: 100 to 1000 nM
[5]
  Ki: 100 to 1000 nM
[6]
  PAM1154/KPC-2 Biapenem MPC64: 0.3
[7]
  Ki: 100 to 1000 nM
[8]
  Ki: < 100 nM
[9]
  PAM1032/KPC-2 Biapenem MPC64: 5
[10]
  Ki: < 100 nM
[11]
  Ki: 100 to 1000 nM

## O=C(O)c1c(F)c(F)cc2c1OB(O)C1CC21 (stereo not shown) [Compound 19, 5,6-difluoro-2,2-dihydroxy-1a,7b-dihydro-1H-cyclopropa[c][1,2]benzoxaborinine-4-carboxylic acid]
[1]
  Ki: > 1000 nM
[2]
  Ki: < 100 nM
[3]
  Ki: 100 to 1000 nM
[4]
  Ki: < 100 nM
[5]
  Ki: < 100 nM
[6]
  PAM1154/KPC-2 Biapenem MPC64: 1.25
[7]
  Ki: < 100 nM
[8]
  Ki: < 100 nM
[9]
  PAM1032/KPC-2 Biapenem MPC64: 5
[10]
  Ki: < 100 nM
[11]
  Ki: < 100 nM

## COc1ccc2c(c1C(=O)O)OB(O)C1(CO)CC21 (stereo not shown) [Compound 22, 2,2-dihydroxy-1a-(hydroxymethyl)-5-methoxy-1,7b-dihydrocyclopropa[c][1,2]benzoxaborinine-4-carboxylic acid]
[1]
  Ki: < 100 nM
[2]
  Ki: < 100 nM
[3]
  Ki: < 100 nM
[4]
  Ki: < 100 nM
[5]
  Ki: < 100 nM
[6]
  PAM1154/KPC-2 Biapenem MPC64: 10
[7]
  Ki: < 100 nM
[8]
  Ki: < 100 nM
[9]
  PAM1032/KPC-2 Biapenem MPC64: 20
[10]
  Ki: < 100 nM
[11]
  Ki: > 1000 nM

## COc1ccc2c(c1C(=O)O)OB(O)[C@@H]1COC[C@H]21 [Compound 23, (3aS,9bS)-4,4-dihydroxy-7-methoxy-1,3,3a,9b-tetrahydrofuro[3,4-c][1,2]benzoxaborinine-6-carboxylic acid]
[1]
  Ki: > 1000 nM
[2]
  Ki: < 100 nM
[3]
  Ki: < 100 nM
[4]
  Ki: 100 to 1000 nM
[5]
  Ki: < 100 nM
[6]
  PAM1154/KPC-2 Biapenem MPC64: 20
[7]
  Ki: 100 to 1000 nM
[8]
  Ki: < 100 nM
[9]
  PAM1032/KPC-2 Biapenem MPC64: 20
[10]
  Ki: < 100 nM
[11]
  Ki: < 100 nM
